Experimental data published in ChEMBL document CHEMBL1151757, “Synthesis, radiosynthesis, and biological evaluation of fluorine-18-labeled 2beta-carbo(fluoroalkoxy)-3beta-(3'-((Z)-2-haloethenyl)phenyl)nortropanes: candidate radioligands for in vivo imaging of the serotonin transporter with positron emission tomography” (J Med Chem, 2008).

Tested on: not listed separately
Assay: Ratio of drug uptake in pons to cerebellum in anesthetized cynomolgus monkey after 1.5 mins postinjection
Format: ADME, organism-based, Macaca fascicularis
Settings: in vivo, 0.025 h

Row | Compound | Ratio
1 | O=C(OCC[18F])C1C2CCC(CC1c1cccc(/C=C\Br)c1)N2 (stereo not drawn) | 1.6

Tested on: not listed separately
Assay: Ratio of drug uptake in frontal lobe to cerebellum in anesthetized cynomolgus monkey after 35 mins postinjection
Format: ADME, organism-based, Macaca fascicularis
Settings: in vivo

Row | Compound | Ratio
2 | O=C(OCC[18F])C1C2CCC(CC1c1cccc(/C=C\Br)c1)N2 (stereo not drawn) | 0.7

Tested on: Thalamus
Assay: Drug uptake in anesthetized cynomolgus monkey brain thalamus after 155 mins postinjection
Format: ADME, organism-based, Macaca fascicularis
Design: unit not given here
Settings: in vivo

Row | Compound | Drug uptake
3 | O=C(OCC[18F])C1C2CCC(CC1c1cccc(/C=C\Br)c1)N2 (stereo not drawn) | 3.64

Tested on: not listed separately
Assay: Ratio of drug uptake in thalamus to cerebellum in anesthetized cynomolgus monkey after 27.5 mins postinjection
Format: ADME, organism-based, Macaca fascicularis
Settings: in vivo

Row | Compound | Ratio
4 | O=C(OCC[18F])C1C2CCC(CC1c1cccc(/C=C\Br)c1)N2 (stereo not drawn) | 1

Tested on: not listed separately
Assay: Drug uptake in anesthetized cynomolgus monkey brain cerebellum after 65 mins postinjection
Format: ADME, organism-based, Macaca fascicularis
Settings: in vivo

Row | Compound | Drug uptake
5 | O=C(OCC[18F])C1C2CCC(CC1c1cccc(/C=C\Br)c1)N2 (stereo not drawn) | 3.5

Tested on: Pons
Assay: Drug uptake in anesthetized cynomolgus monkey brain pons after 75 mins postinjection
Format: ADME, organism-based, Macaca fascicularis
Settings: in vivo, 1.25 h

Row | Compound | Drug uptake
6 | O=C(OCC[18F])C1C2CCC(CC1c1cccc(/C=C\Br)c1)N2 (stereo not drawn) | 4.51

Tested on: Medulla
Assay: Drug uptake in anesthetized cynomolgus monkey brain medulla after 105 mins postinjection
Format: ADME, organism-based, Macaca fascicularis
Settings: in vivo, 1.75 h

Row | Compound | Drug uptake
7 | O=C(OCC[18F])C1C2CCC(CC1c1cccc(/C=C\Br)c1)N2 (stereo not drawn) | 4.31

Tested on: not listed separately
Assay: Drug uptake in anesthetized cynomolgus monkey brain cerebellum after 9.5 mins postinjection
Format: ADME, organism-based, Macaca fascicularis
Settings: in vivo

Row | Compound | Drug uptake
8 | O=C(OCC[18F])C1C2CCC(CC1c1cccc(/C=C\Br)c1)N2 (stereo not drawn) | 3.17

Tested on: not listed separately
Assay: Ratio of drug uptake in occipital lobe to cerebellum in anesthetized cynomolgus monkey after 175 mins postinjection
Format: ADME, organism-based, Macaca fascicularis
Settings: in vivo

Row | Compound | Ratio
9 | O=C(OCC[18F])C1C2CCC(CC1c1cccc(/C=C\Br)c1)N2 (stereo not drawn) | 1.2

Tested on: not listed separately
Assay: Ratio of drug uptake in putamen to cerebellum in anesthetized cynomolgus monkey after 35 mins postinjection
Format: ADME, organism-based, Macaca fascicularis
Settings: in vivo

Row | Compound | Ratio
10 | O=C(OCC[18F])C1C2CCC(CC1c1cccc(/C=C\Br)c1)N2 (stereo not drawn) | 1.3

Tested on: Thalamus
Assay: Drug uptake in anesthetized cynomolgus monkey brain thalamus after 22.5 mins postinjection
Format: ADME, organism-based, Macaca fascicularis
Design: unit not given here
Settings: in vivo, 0.375 h

Row | Compound | Drug uptake
11 | O=C(OCC[18F])C1C2CCC(CC1c1cccc(/C=C\Br)c1)N2 (stereo not drawn) | 3.43

Tested on: not listed separately
Assay: Drug uptake in anesthetized cynomolgus monkey brain cerebellum after 35 mins postinjection
Format: ADME, organism-based, Macaca fascicularis
Settings: in vivo

Row | Compound | Drug uptake
12 | O=C(OCC[18F])C1C2CCC(CC1c1cccc(/C=C\Br)c1)N2 (stereo not drawn) | 3.84

Tested on: not listed separately
Assay: Ratio of drug uptake in pons to cerebellum in anesthetized cynomolgus monkey after 225 mins postinjection
Format: ADME, organism-based, Macaca fascicularis
Settings: in vivo, 3.75 h

Row | Compound | Ratio
13 | O=C(OCC[18F])C1C2CCC(CC1c1cccc(/C=C\Br)c1)N2 (stereo not drawn) | 1.7

Tested on: Thalamus
Assay: Drug uptake in anesthetized cynomolgus monkey brain thalamus after 95 mins postinjection
Format: ADME, organism-based, Macaca fascicularis
Design: unit not given here
Settings: in vivo

Row | Compound | Drug uptake
14 | O=C(OCC[18F])C1C2CCC(CC1c1cccc(/C=C\Br)c1)N2 (stereo not drawn) | 4.31

Tested on: not listed separately
Assay: Ratio of drug uptake in thalamus to cerebellum in anesthetized cynomolgus monkey after 9.5 mins postinjection
Format: ADME, organism-based, Macaca fascicularis
Settings: in vivo

Row | Compound | Ratio
15 | O=C(OCC[18F])C1C2CCC(CC1c1cccc(/C=C\Br)c1)N2 (stereo not drawn) | 0.9

Tested on: Caudate
Assay: Drug uptake in anesthetized cynomolgus monkey brain caudate after 65 mins postinjection
Format: ADME, organism-based, Macaca fascicularis, Caudate nucleus
Settings: in vivo

Row | Compound | Drug uptake
16 | O=C(OCC[18F])C1C2CCC(CC1c1cccc(/C=C\Br)c1)N2 (stereo not drawn) | 4.08

Tested on: Midbrain
Assay: Drug uptake in anesthetized cynomolgus monkey brain midbrain after 27.5 mins postinjection
Format: ADME, organism-based, Macaca fascicularis
Design: unit not given here
Settings: in vivo

Row | Compound | Drug uptake
17 | O=C(OCC[18F])C1C2CCC(CC1c1cccc(/C=C\Br)c1)N2 (stereo not drawn) | 4.53

Tested on: not listed separately
Assay: Ratio of drug uptake in occipital lobe to cerebellum in anesthetized cynomolgus monkey after 18.5 mins postinjection
Format: ADME, organism-based, Macaca fascicularis
Settings: in vivo

Row | Compound | Ratio
18 | O=C(OCC[18F])C1C2CCC(CC1c1cccc(/C=C\Br)c1)N2 (stereo not drawn) | 0.8

Tested on: Midbrain
Assay: Drug uptake in anesthetized cynomolgus monkey brain midbrain after 155 mins postinjection
Format: ADME, organism-based, Macaca fascicularis
Settings: in vivo

Row | Compound | Drug uptake
19 | O=C(OCC[18F])C1C2CCC(CC1c1cccc(/C=C\Br)c1)N2 (stereo not drawn) | 4.54

Tested on: Thalamus
Assay: Drug uptake in anesthetized cynomolgus monkey brain thalamus after 18.5 mins postinjection
Format: ADME, organism-based, Macaca fascicularis
Design: unit not given here
Settings: in vivo

Row | Compound | Drug uptake
20 | O=C(OCC[18F])C1C2CCC(CC1c1cccc(/C=C\Br)c1)N2 (stereo not drawn) | 3.32

Tested on: Thalamus
Assay: Drug uptake in anesthetized cynomolgus monkey brain thalamus after 135 mins postinjection
Format: ADME, organism-based, Macaca fascicularis
Design: unit not given here
Settings: in vivo, 2.25 h

Row | Compound | Drug uptake
21 | O=C(OCC[18F])C1C2CCC(CC1c1cccc(/C=C\Br)c1)N2 (stereo not drawn) | 4.03

Tested on: not listed separately
Assay: Ratio of drug uptake in midbrain to cerebellum in anesthetized cynomolgus monkey after 2.5 mins postinjection
Format: ADME, organism-based, Macaca fascicularis
Settings: in vivo

Row | Compound | Ratio
22 | O=C(OCC[18F])C1C2CCC(CC1c1cccc(/C=C\Br)c1)N2 (stereo not drawn) | 1.3

Tested on: Putamen
Assay: Drug uptake in anesthetized cynomolgus monkey brain putamen after 55 mins postinjection
Format: ADME, organism-based, Macaca fascicularis
Design: unit not given here
Settings: in vivo

Row | Compound | Drug uptake
23 | O=C(OCC[18F])C1C2CCC(CC1c1cccc(/C=C\Br)c1)N2 (stereo not drawn) | 5.05

Tested on: not listed separately
Assay: Ratio of drug uptake in pons to cerebellum in anesthetized cynomolgus monkey after 195 mins postinjection
Format: ADME, organism-based, Macaca fascicularis
Settings: in vivo, 3.25 h

Row | Compound | Ratio
24 | O=C(OCC[18F])C1C2CCC(CC1c1cccc(/C=C\Br)c1)N2 (stereo not drawn) | 2

Tested on: not listed separately
Assay: Drug uptake in anesthetized cynomolgus monkey brain frontal lobe after 155 mins postinjection
Format: ADME, organism-based, Macaca fascicularis
Settings: in vivo

Row | Compound | Drug uptake
25 | O=C(OCC[18F])C1C2CCC(CC1c1cccc(/C=C\Br)c1)N2 (stereo not drawn) | 2.46

Tested on: not listed separately
Assay: Ratio of drug uptake in caudate to cerebellum in anesthetized cynomolgus monkey after 95 mins postinjection
Format: ADME, organism-based, Macaca fascicularis
Settings: in vivo

Row | Compound | Ratio
26 | O=C(OCC[18F])C1C2CCC(CC1c1cccc(/C=C\Br)c1)N2 (stereo not drawn) | 1.4

Tested on: not listed separately
Assay: Ratio of drug uptake in putamen to cerebellum in anesthetized cynomolgus monkey after 9.5 mins postinjection
Format: ADME, organism-based, Macaca fascicularis
Settings: in vivo

Row | Compound | Ratio
27 | O=C(OCC[18F])C1C2CCC(CC1c1cccc(/C=C\Br)c1)N2 (stereo not drawn) | 1.1

Tested on: not listed separately
Assay: Drug uptake in anesthetized cynomolgus monkey brain occipital lobe after 22.5 mins postinjection
Format: ADME, organism-based, Macaca fascicularis
Settings: in vivo, 0.375 h

Row | Compound | Drug uptake
28 | O=C(OCC[18F])C1C2CCC(CC1c1cccc(/C=C\Br)c1)N2 (stereo not drawn) | 3.14

Tested on: not listed separately
Assay: Ratio of drug uptake in medulla to cerebellum in anesthetized cynomolgus monkey after 165 mins postinjection
Format: ADME, organism-based, Macaca fascicularis
Settings: in vivo, 2.75 h

Row | Compound | Ratio
29 | O=C(OCC[18F])C1C2CCC(CC1c1cccc(/C=C\Br)c1)N2 (stereo not drawn) | 1.8

Tested on: not listed separately
Assay: Ratio of drug uptake in frontal lobe to cerebellum in anesthetized cynomolgus monkey after 235 mins postinjection
Format: ADME, organism-based, Macaca fascicularis
Settings: in vivo

Row | Compound | Ratio
30 | O=C(OCC[18F])C1C2CCC(CC1c1cccc(/C=C\Br)c1)N2 (stereo not drawn) | 1.2

Tested on: not listed separately
Assay: Drug uptake in anesthetized cynomolgus monkey brain frontal lobe after 15.5 mins postinjection
Format: ADME, organism-based, Macaca fascicularis
Settings: in vivo

Row | Compound | Drug uptake
31 | O=C(OCC[18F])C1C2CCC(CC1c1cccc(/C=C\Br)c1)N2 (stereo not drawn) | 2.38

Tested on: not listed separately
Assay: Drug uptake in anesthetized cynomolgus monkey brain occipital lobe after 125 mins postinjection
Format: ADME, organism-based, Macaca fascicularis
Settings: in vivo

Row | Compound | Drug uptake
32 | O=C(OCC[18F])C1C2CCC(CC1c1cccc(/C=C\Br)c1)N2 (stereo not drawn) | 3.07

Tested on: Midbrain
Assay: Drug uptake in anesthetized cynomolgus monkey brain midbrain after 65 mins postinjection
Format: ADME, organism-based, Macaca fascicularis
Design: unit not given here
Settings: in vivo

Row | Compound | Drug uptake
33 | O=C(OCC[18F])C1C2CCC(CC1c1cccc(/C=C\Br)c1)N2 (stereo not drawn) | 5
